Test results as given in patent publication US20200237766A1, “PKM2 ACTIVATORS IN COMBINATION WITH REACTIVE OXYGEN SPECIES FOR TREATMENT OF CANCER” (TOLERO PHARMACEUTICALS, INC., priority 2017, published 2020).
Where two headings read alike, the source gives them in different places.

Biological target: PKM2 (Homo sapiens, UniProt P14618)
Assay: PKM2 activation biochemical assay (AC50 / max. response vs fructose 1,6-bisphosphate)
Conditions: for Max. Resp. (%): % maximum response in a biochemical assay as compared with Fructose 1,6-bisphosphate
[1] = biochemical assay, read-out: PKM2 AC50

Chain of PKM2 (P14618 whole entry): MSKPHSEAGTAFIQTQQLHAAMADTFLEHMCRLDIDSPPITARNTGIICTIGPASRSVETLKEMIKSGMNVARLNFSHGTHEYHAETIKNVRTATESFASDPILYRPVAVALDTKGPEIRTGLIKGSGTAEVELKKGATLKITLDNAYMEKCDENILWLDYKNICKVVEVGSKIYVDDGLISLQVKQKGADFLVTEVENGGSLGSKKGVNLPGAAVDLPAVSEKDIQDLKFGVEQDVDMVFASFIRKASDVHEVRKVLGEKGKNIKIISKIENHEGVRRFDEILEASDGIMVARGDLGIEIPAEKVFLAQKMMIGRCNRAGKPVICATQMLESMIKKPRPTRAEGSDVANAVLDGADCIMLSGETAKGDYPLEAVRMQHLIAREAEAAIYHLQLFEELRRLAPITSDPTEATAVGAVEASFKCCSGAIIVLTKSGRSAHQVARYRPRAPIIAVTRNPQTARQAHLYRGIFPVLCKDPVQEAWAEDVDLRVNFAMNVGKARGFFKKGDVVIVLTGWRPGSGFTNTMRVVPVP

Structure (SMILES)	Max. Resp. (%)	AC50 [1] [nM]	AC50 [nM]
O=C(c1cc(C(F)(F)F)n[nH]1)N(CCN1CCC(F)(F)CC1)Cc1ccccc1Cl [Compound 205]	100	2050	–
O=C(c1cc(C(F)(F)F)n[nH]1)N(CCN1CCCC1)Cc1cccc2[nH]cc(F)c12 [Compound 206]	100	136	–
Nc1ccc(CN(CCN2CCCCCC2)C(=O)c2cc(C(F)(F)F)n[nH]2)c(Cl)c1 [Compound 207]	75	170	–
O=C(c1cc(C(F)(F)F)n[nH]1)N(CCN1CCCCCC1)Cc1cccc2nc[nH]c12 [Compound 208]	100	125	–
CCCN(CC)CCN(Cc1ccccc1Cl)C(=O)c1cc(C(F)(F)F)n[nH]1 [Compound 209]	100	52	–
O=C(c1cc(C(F)(F)F)n[nH]1)N(CCN1CCCCCC1)Cc1cccc([N+](=O)[O-])c1Cl [Compound 210]	100	–	133
O=C(c1cc(C(F)(F)F)n[nH]1)N(CCN1CCCCCC1)Cc1c(Cl)cccc1[N+](=O)[O-] [Compound 211]	100	123	–
CC1CCCC(C)N1CCN(Cc1ccccc1Cl)C(=O)c1cc(C(F)(F)F)n[nH]1 (centres unmarked) [Compound 212]	53	5810	–
Nc1cccc(CN(CCN2CCCCCC2)C(=O)c2cc(C(F)(F)F)n[nH]2)c1Cl [Compound 213]	100	–	60
Nc1ccc(F)c(CN(CCN2CCCCCC2)C(=O)c2cc(C(F)(F)F)n[nH]2)c1 [Compound 214]	100	153	–
COc1ccc(N)cc1CN(CCN1CCCCCC1)C(=O)c1cc(C(F)(F)F)n[nH]1 [Compound 215]	100	1190	–
Nc1cccc(CN(CCN2CCCCCC2)C(=O)c2cc(C(F)(F)F)n[nH]2)c1F [Compound 216]	100	117	–
COc1c(N)cccc1CN(CCN1CCCCCC1)C(=O)c1cc(C(F)(F)F)n[nH]1 [Compound 217]	100	230	–
Nc1cccc(Cl)c1CN(CCN1CCCCCC1)C(=O)c1cc(C(F)(F)F)n[nH]1 [Compound 218]	100	41	–
O=C(c1cc(C(F)(F)F)n[nH]1)N(CCN1CCC(O)CC1)Cc1ccccc1Cl [Compound 219]	100	1300	–
O=C(c1cc(C(F)(F)F)n[nH]1)N(CCN1CCCC(O)C1)Cc1ccccc1Cl (centres unmarked) [Compound 220]	100	465	–
CC(CN(Cc1c(N)cccc1Cl)C(=O)c1cc(C(F)(F)F)n[nH]1)N1CCCC1 (centres unmarked) [Compound 221]	60	223	–
Nc1cccc(Cl)c1CN(CCN1CCCC1)C(=O)c1cc(C(F)(F)F)n[nH]1 [Compound 222]	100	–	56
CCCN(CC)CCN(Cc1c(N)cccc1Cl)C(=O)c1cc(C(F)(F)F)n[nH]1 [Compound 223]	100	–	32
Nc1cccc(Cl)c1CN(CCN1CCS(=O)(=O)CC1)C(=O)c1cc(C(F)(F)F)n[nH]1 [Compound 224]	100	410	–
Nc1cccc(Cl)c1CN(CCN1CCCC(O)C1)C(=O)c1cc(C(F)(F)F)n[nH]1 (centres unmarked) [Compound 225]	100	102	–
NC1CC(N(Cc2ccccc2Cl)C(=O)c2cc(C(F)(F)F)n[nH]2)C1 (centres unmarked) [Compound 226]	80	12000	–
O=C(c1cc(C(F)(F)F)n[nH]1)N(Cc1ccccc1Cl)CC1CCN1 (centres unmarked) [Compound 227]	100	215	–
CS(=O)(=O)N1CCCC(CCN(Cc2ccccc2Cl)C(=O)c2cc(C(F)(F)F)n[nH]2)C1 (centres unmarked) [Compound 228]	100	2000	–
O=C(c1cc(C(F)(F)F)n[nH]1)N(CCc1ccc(O)cc1)Cc1ccccc1Cl [Compound 230]	100	12000	–

Structure (SMILES)	Max. Resp. (%)	AC50 [1] [nM]	AC50 [nM]
O=C(c1cc(C(F)(F)F)n[nH]1)N(Cc1ccccc1Cl)CC1CCCN1 (centres unmarked) [Compound 232]	85	320	–
Nc1cccc(Cl)c1CN(CC1CCN1)C(=O)c1cc(C(F)(F)F)n[nH]1 (centres unmarked) [Compound 233]	75	930	–
Nc1cccc(Cl)c1CN(CCN1CCC(O)C1)C(=O)c1cc(C(F)(F)F)n[nH]1 (centres unmarked) [Compound 234]	100	111	–
COC1CCN(CCN(Cc2c(N)cccc2Cl)C(=O)c2cc(C(F)(F)F)n[nH]2)C1 (centres unmarked) [Compound 235]	100	133	–
Nc1cccc(Cl)c1CN(CCN1CCCC(F)C1)C(=O)c1cc(C(F)(F)F)n[nH]1 (centres unmarked) [Compound 236]	73	160	–
COC1CCCN(CCN(Cc2c(N)cccc2Cl)C(=O)c2cc(C(F)(F)F)n[nH]2)C1 (centres unmarked) [Compound 237]	100	183	–
Nc1cccc(Cl)c1CN(CCN1CCC(F)CC1)C(=O)c1cc(C(F)(F)F)n[nH]1 [Compound 238]	100	116	–
Nc1cccc(Cl)c1CN(CCN1CCCOCC1)C(=O)c1cc(C(F)(F)F)n[nH]1 [Compound 239]	100	–	115
CCCN(CC)CCN(Cc1c(N)cccc1F)C(=O)c1cc(C(F)(F)F)n[nH]1 [Compound 240]	100	68	–
Nc1cccc(Cl)c1CN(CCN1CC[C@H](F)C1)C(=O)c1cc(C(F)(F)F)n[nH]1 [Compound 241]	100	–	125
Nc1cccc(Cl)c1CN(CCN1CC[C@@H](F)C1)C(=O)c1cc(C(F)(F)F)n[nH]1 [Compound 242]	100	–	465
Nc1cccc(Cl)c1CN(CCN1CCCC(F)CC1)C(=O)c1cc(C(F)(F)F)n[nH]1 (centres unmarked) [Compound 243]	100	106	–
O=C(c1cc(C(F)(F)F)n[nH]1)N(Cc1ccc(O)cc1F)CC1CCC1 [Compound 244]	107	62	–
O=C(c1cc(Br)n[nH]1)N(Cc1ccc(O)cc1F)CC1CCC1 [Compound 245]	100	35	–
O=C(c1cc(C2CC2)n[nH]1)N(Cc1ccc(O)cc1F)CC1CCC1 [Compound 246]	85	–	–
O=C(CCSC(=S)NCc1cccnc1)c1ccccc1 [PMA8]	24	7640	–
O=C(CCSC(=S)NCc1cccnc1)c1ccc(Cl)cc1 [PMA9]	–	> 20000	–
O=C(CCSC(=S)NCc1cccnc1)c1ccc(F)cc1 [PMA10]	48	9830	–
O=C(CCSC(=S)NCc1cccnc1)c1ccc(O)cc1 [PMA11]	76	6230	–
N#Cc1ccc(C(=O)CCSC(=S)NCc2cccnc2)cc1 [PMA12]	61	4390	–
O=C(CCSC(=S)NCc1cccnc1)c1ccc([N+](=O)[O-])cc1 [PMA13]	49	2760	–
O=C(CCSC(=S)NCc1cccnc1)c1ccc(OCc2ccccc2)cc1 [PMA15]	–	> 20000	–
COc1ccc(C(=O)CCSC(=S)NCc2cccnc2)cc1 [PMA16]	63	11200	–
O=C(CCSC(=S)NCc1cccnc1)c1ccc(C(F)(F)F)cc1 [PMA17]	23	> 20000	–
